Experiments:
Type in all cases: in vivo
[1] = test system: foxtail, giant (giant foxtail, Setaria faberi); assay: Test A preemergence, foxtail, giant; conditions: 0 to 100 scale, 10 days
How it was run: (§1)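 Both application timings shared one formulation: test chemical in non-phytotoxic solvent with surfactant. Preemergence used a directed soil spray at sowing, postemergence a spray on 2–10 cm seedlings. Untreated plants served as reference for 0–100 visual ratings after 10 days.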

[2] = test system: blackgrass (Alopecurus myosuroides); assay: Test A preemergence, blackgrass; conditions: 0 to 100 scale, 10 days
Excerpt: (§2) Seeds of plant species selected from barnyardgrass (Echinochloa crus-galli), blackgrass (Alopecurus myosuroides), corn (Zea mays), foxtail, giant (giant foxtail, Setaria faberi), foxtail, green (green foxtail, Setaria viridis), goosegrass (Eleusine indica), kochia (Bassia scoparia), oat, wild (wild oat, Avena fatua), palmer amaranth (pigweed, palmer, Amaranthus palmeri), redroot pigweed (Amaranthus retroflexus), ragweed (common ragweed, Ambrosia artemisiifolia), ryegrass, Italian (Italian ryegrass, Lolium multiflorum), and soybean (Glycine max) were planted into a blend of loam soil and sand and treated preemergence with a directed soil spray using test chemicals formulated in a non-phytotoxic solvent mixture which included a surfactant.
(§3) At the same time, plants selected from these crop and weed species and also wheat (Triticum aestivum), galium (catchweed bedstraw, Galium aparine) and horseweed (Erigeron canadensis) were planted in pots containing the same blend of loam soil and sand and treated with postemergence applications of test chemicals formulated in the same manner. Plants ranged in height from 2 to 10 cm and were in the one- to two-leaf stage for the postemergence treatment. Treated plants and untreated controls were maintained in a greenhouse for 10 days, after which time all treated plants were compared to untreated controls and visually evaluated for injury. Plant response ratings, summarized in Table A, are based on a 0 to 100 scale where 0 is no effect and 100 is complete control. A dash (-) response means no test result.

[3] = test system: ryegrass, Italian (Italian ryegrass, Lolium multiflorum); assay: Test A postemergence, ryegrass, Italian; conditions: 10 days
How it was run: as §1

[4] = test system: barnyardgrass (Echinochloa crus-galli); assay: Test B flooded paddy test, barnyardgrass; conditions: 250 g ai/ha, Flood; visually evaluated after 10 to 14 days
How it was run: (§4)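 2-leaf plants; pots flooded to 3 cm; compound applied to paddy water; depth kept constant; greenhouse 10–14 d; visual rating vs untreated, 0 = no effect, 100 = complete control.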

[5] = test system: corn (Zea mays); assay: Test A postemergence, corn; conditions: 10 days
How it was run: as §1

[6] = test system: ragweed (common ragweed, Ambrosia artemisiifolia); assay: Test A preemergence, ragweed; conditions: 0 to 100 scale, 10 days
How it was run: as §1

[7] = test system: palmer amaranth (pigweed, palmer, Amaranthus palmeri); assay: Test A preemergence, palmer amaranth; conditions: 0 to 100 scale, 10 days
Excerpt: as §2, §3

[8] = test system: soybean (Glycine max); assay: Test A postemergence, soybean; conditions: 10 days
Excerpt: as §2, §3

[9] = test system: sedge, umbrella (small-flower umbrella sedge, Cyperus difformis); assay: Test B flooded paddy test, sedge, umbrella; conditions: 250 g ai/ha, Flood; visually evaluated after 10 to 14 days
How it was run: as §4

[10] = test system: oat, wild (wild oat, Avena fatua); assay: Test A preemergence, oat, wild; conditions: 0 to 100 scale, 10 days
Excerpt: as §2, §3

[11] = test system: wheat (Triticum aestivum); assay: Test A postemergence, wheat; conditions: 10 days
How it was run: as §1

[12] = test system: kochia (Bassia scoparia); assay: Test A preemergence, kochia; conditions: 0 to 100 scale, 10 days
How it was run: as §1

[13] = test system: corn (Zea mays); assay: Test A preemergence, corn; conditions: 0 to 100 scale, 10 days
Excerpt: as §2, §3

[14] = test system: blackgrass (Alopecurus myosuroides); assay: Test A postemergence, blackgrass; conditions: 10 days
How it was run: as §1

[15] = test system: palmer amaranth (pigweed, palmer, Amaranthus palmeri); assay: Test A postemergence, palmer amaranth; conditions: 10 days
Excerpt: as §2, §3

[16] = test system: kochia (Bassia scoparia); assay: Test A postemergence, kochia; conditions: 10 days
How it was run: as §1

[17] = test system: goosegrass (Eleusine indica); assay: Test A preemergence, goosegrass; conditions: 0 to 100 scale, 10 days
Excerpt: as §2, §3

[18] = test system: foxtail, giant (giant foxtail, Setaria faberi); assay: Test A postemergence, foxtail, giant; conditions: 10 days
How it was run: as §1

[19] = test system: rice (Oryza sativa); assay: Test B flooded paddy test, rice; conditions: 250 g ai/ha, Flood; visually evaluated after 10 to 14 days
How it was run: as §4

[20] = test system: horseweed (Erigeron canadensis); assay: Test A postemergence, horseweed; conditions: 10 days
Excerpt: as §2, §3

[21] = test system: ragweed (common ragweed, Ambrosia artemisiifolia); assay: Test A postemergence, ragweed; conditions: 10 days
How it was run: as §1

[22] = test system: galium (catchweed bedstraw, Galium aparine); assay: Test A postemergence, galium; conditions: 10 days
How it was run: as §1

[23] = test system: ducksalad (Heteranthera limosa); assay: Test B flooded paddy test, ducksalad; conditions: 250 g ai/ha, Flood; visually evaluated after 10 to 14 days
How it was run: as §4

[24] = test system: wheat (Triticum aestivum); assay: Test A preemergence, wheat; conditions: 125 g ai/ha, 0 to 100 scale, 10 days
[25] = test system: oat, wild (wild oat, Avena fatua); assay: Test A postemergence, oat, wild; conditions: 10 days
Excerpt: as §2, §3

[26] = test system: soybean (Glycine max); assay: Test A preemergence, soybean; conditions: 0 to 100 scale, 10 days
Excerpt: as §2, §3

[27] = test system: goosegrass (Eleusine indica); assay: Test A postemergence, goosegrass; conditions: 10 days
Excerpt: as §2, §3

[28] = test system: ryegrass, Italian (Italian ryegrass, Lolium multiflorum); assay: Test A preemergence, ryegrass, Italian; conditions: 0 to 100 scale, 10 days
How it was run: as §1

[29] = test system: barnyardgrass (Echinochloa crus-galli); assay: Test A postemergence, barnyardgrass; conditions: 10 days
How it was run: as §1

[30] = test system: redroot pigweed (Amaranthus retroflexus); assay: Test A postemergence, redroot pigweed; conditions: 10 days
How it was run: as §1

[31] = test system: barnyardgrass (Echinochloa crus-galli); assay: Test A preemergence, barnyardgrass; conditions: 10 days
How it was run: as §1

[32] = test system: foxtail, green (green foxtail, Setaria viridis); assay: Test A postemergence, foxtail, green; conditions: 10 days
Excerpt: as §2, §3

[33] = test system: foxtail, green (green foxtail, Setaria viridis); assay: Test A preemergence, foxtail, green; conditions: 0 to 100 scale, 10 days
Excerpt: as §2, §3

[34] = test system: redroot pigweed (Amaranthus retroflexus); assay: Test A preemergence, redroot pigweed; conditions: 0 to 100 scale, 10 days
How it was run: as §1

[35] = 31 g ai/ha, postemergence, 0 to 100 scale (0 no effect, 100 complete control)
[36] = Postemergence, 125 g ai/ha, 0 to 100 scale

## Cc1ccc2cc3ccc(F)cc3c(-c3c(OCOC(=O)N(C)C)c(C)nn(C)c3=O)c2c1 [Compound 16]
[1]; 31 g ai/ha
  Plant response rating, Foxtail, Giant: 0
[1]; 125 g ai/ha
  Plant response rating, Foxtail, Giant: 0
[2]; 31 g ai/ha
  Plant response rating, Blackgrass: 0
[2]; 125 g ai/ha
  Plant response rating, Blackgrass: 0
[3]; [35]
  Plant response rating, Ryegrass, Italian: 0
[3]; [36]
  Plant response rating, Ryegrass, Italian: 0
[4]
  Plant response rating, Barnyardgrass (0 to 100 scale where 0 is no effect and 100 is complete control): 0
[5]; [35]
  Plant response rating, Corn: 0
[5]; [36]
  Plant response rating, Corn: 0
[6]; 31 g ai/ha
  Plant response rating, Ragweed: 0
[6]; 125 g ai/ha
  Plant response rating, Ragweed: 0
[7]; 31 g ai/ha
  Plant response rating, Pigweed, Palmer: 10
[7]; 125 g ai/ha
  Plant response rating, Pigweed, Palmer: 0
[8]; [35]
  Plant response rating, Soybean: 10
[8]; [36]
  Plant response rating, Soybean: 30
[9]
  Plant response rating, Sedge, Umbrella (0 to 100 scale where 0 is no effect and 100 is complete control): 0
[10]; 31 g ai/ha
  Plant response rating, Oat, Wild: 0
[10]; 125 g ai/ha
  Plant response rating, Oat, Wild: 0
[11]; [35]
  Plant response rating, Wheat: 0
[11]; [36]
  Plant response rating, Wheat: 0
[12]; 31 g ai/ha
  Plant response rating, Kochia: 0
[12]; 125 g ai/ha
  Plant response rating, Kochia: 0
[13]; 31 g ai/ha
  Plant response rating, Corn: 0
[13]; 125 g ai/ha
  Plant response rating, Corn: 0
[14]; [35]
  Plant response rating, Blackgrass: 0
[14]; [36]
  Plant response rating, Blackgrass: 0
[15]; [35]
  Plant response rating, Pigweed, Palmer: 100
[15]; [36]
  Plant response rating, Pigweed, Palmer: 60
[16]; [35]
  Plant response rating, Kochia: 60
[16]; [36]
  Plant response rating, Kochia: 80
[17]; 31 g ai/ha
  Plant response rating, Goosegrass: 0
[17]; 125 g ai/ha
  Plant response rating, Goosegrass: 0
[18]; [35]
  Plant response rating, Foxtail, Giant: 0
[18]; [36]
  Plant response rating, Foxtail, Giant: 20
[19]
  Plant response rating, Rice (0 to 100 scale where 0 is no effect and 100 is complete control): 0
[20]; [35]
  Plant response rating, Horseweed: 10
[20]; [36]
  Plant response rating, Horseweed: 10
[21]; [35]
  Plant response rating, Ragweed: 10
[21]; [36]
  Plant response rating, Ragweed: 30
[22]; [35]
  Plant response rating, Galium: 0
[22]; [36]
  Plant response rating, Galium: 50
[23]
  Plant response rating, Ducksalad (0 to 100 scale where 0 is no effect and 100 is complete control): 0
[24]
  Plant response rating, Wheat: 0
[25]; [35]
  Plant response rating, Oat, Wild: 0
[25]; [36]
  Plant response rating, Oat, Wild: 0
[26]; 31 g ai/ha
  Plant response rating, Soybean: 0
[26]; 125 g ai/ha
  Plant response rating, Soybean: 0
[27]; [35]
  Plant response rating, Goosegrass: 0
[27]; [36]
  Plant response rating, Goosegrass: 0
[28]; 31 g ai/ha
  Plant response rating, Ryegrass, Italian: 0
[28]; 125 g ai/ha
  Plant response rating, Ryegrass, Italian: 0

## Cc1cc(Cl)c2ccc(F)cc2c1-c1c(OCOC(=O)C(C)(C)C)c(C)nn(C)c1=O [Compound 30]
[3]; [35]
  Plant response rating, Ryegrass, Italian: 80
[3]; [36]
  Plant response rating, Ryegrass, Italian: 100
[4]
  Plant response rating, Barnyardgrass (0 to 100 scale where 0 is no effect and 100 is complete control): 40
[5]; [35]
  Plant response rating, Corn: 0
[5]; [36]
  Plant response rating, Corn: 10
[6]; 31 g ai/ha
  Plant response rating, Ragweed: 80
[6]; 125 g ai/ha
  Plant response rating, Ragweed: 90
[9]
  Plant response rating, Sedge, Umbrella (0 to 100 scale where 0 is no effect and 100 is complete control): 100
[11]; [35]
  Plant response rating, Wheat: 20
[11]; [36]
  Plant response rating, Wheat: 60
[29]; [35]
  Plant response rating, Barnyardgrass: 20
[29]; [36]
  Plant response rating, Barnyardgrass: 50
[12]; 31 g ai/ha
  Plant response rating, Kochia: 20
[12]; 125 g ai/ha
  Plant response rating, Kochia: 20
[14]; [35]
  Plant response rating, Blackgrass: 40
[14]; [36]
  Plant response rating, Blackgrass: 80
[30]; [35]
  Plant response rating, Pigweed, Redroot: 80
[30]; [36]
  Plant response rating, Pigweed, Redroot: 90
[31]; 31 g ai/ha, 0 to 100 scale
  Plant response rating, Barnyardgrass: 0
[31]; 125 g ai/ha, 0 to 100 scale (0 no effect, 100 complete control)
  Plant response rating, Barnyardgrass: 80
[16]; [35]
  Plant response rating, Kochia: 10
[16]; [36]
  Plant response rating, Kochia: 30
[19]
  Plant response rating, Rice (0 to 100 scale where 0 is no effect and 100 is complete control): 35
[21]; [35]
  Plant response rating, Ragweed: 20
[21]; [36]
  Plant response rating, Ragweed: 100
[22]; [35]
  Plant response rating, Galium: 100
[22]; [36]
  Plant response rating, Galium: 100
[32]; [35]
  Plant response rating, Foxtail, Green: 30
[32]; [36]
  Plant response rating, Foxtail, Green: 80
[23]
  Plant response rating, Ducksalad (0 to 100 scale where 0 is no effect and 100 is complete control): 75
[33]; 31 g ai/ha
  Plant response rating, Foxtail, Green: 20
[33]; 125 g ai/ha
  Plant response rating, Foxtail, Green: 100
[34]; 31 g ai/ha
  Plant response rating, Pigweed, Redroot: 80
[34]; 125 g ai/ha
  Plant response rating, Pigweed, Redroot: 100
[28]; 31 g ai/ha
  Plant response rating, Ryegrass, Italian: 100
[28]; 125 g ai/ha
  Plant response rating, Ryegrass, Italian: 100
